{"source": "patent US6808904B2", "about": "“Herbicide-tolerant protox genes produced by DNA shuffling” (priority 1994, dated 2004)", "tested_on": "maize protox-1 mutants", "assay": "Mutant screens of maize protox-1 (pMut-3) in the E. coli system", "format": "cell-based", "details": "arginine 88 to cysteine; screen on this herbicide", "description": "The pMut-3 plasmid was transformed into the mutator XL1-Red strain as described above and the mutated DNA was isolated and plated on a herbicide concentration (formula XVII) that was lethal to the unmutagenized pMut-3 maize protox gene. Herbicide tolerant colonies were isolated after two days at 37° C. and analyzed as described above. […] Three of these mutations correspond to amino acid changes previously shown to confer tolerance at the homologous position in the Arabidopsis protox-1 gene. Two of the three are pMzC-1Val and pMzC-1Thr, converting the alanine (GCT) at amino acid 164 (SEQ ID NO:6) to either valine ([…]) or to threonine (ACT). This position corresponds to the pAraC-1 mutations described above (see, Table 1B; sub-sequence 3). The third analogous change, pMzC-3Ser, converts the glycine (GGT) at amino acid 165 to Serine (AGT), corresponding to the AraC-3Ser mutation described above (see, Table 1B; sub-sequence 4).\nAdditional mutant screens performed as described earlier in this example, except using formulas XXIIIa and XXIIIb instead of XVII, identified three additional amino acid changes that confer tolerant protox enzymes. […]"}
{"smiles": "Cn1nc(-c2c(F)cc(Cl)c(=O)n2C)c(Cl)c1OC(F)F", "note": "[Formula XXIIIb]", "values": [{"measurement": "tolerance of maize enzyme Mz88Cys", "value": "highly tolerant"}]}
